Measurements: PubChem BioAssay (NCI)
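Values below derive from 48-hour exposures of cells grown in 96-well plates, with endpoints linearly interpolated between the two concentrations bracketing the appropriate inhibition level. GI50: concentration for 50% inhibition of growth. TGI marks complete inhibition of growth.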

Experiments:
Assay in all cases: growth of human tumour cells (NCI), 48 h
MALME-3M melanoma = test system: MALME-3M melanoma
MDA-MB-435 = test system: MDA-MB-435
NCI-H522 lung = test system: NCI-H522 lung
RPMI-8226 leukemia = test system: RPMI-8226 leukemia
RXF 393 renal = test system: RXF 393 renal
SF-268 CNS = test system: SF-268 CNS
SF-539 CNS = test system: SF-539 CNS
SK-OV-3 ovarian = test system: SK-OV-3 ovarian
CAKI-1 renal = test system: CAKI-1 renal
MCF7 breast = test system: MCF7 breast

Question: How did the TGI (MALME-3M melanoma) turn out when `CCCCNCC(=O)O[C@]1(CC)C(=O)OCc2c1cc1n(c2=O)Cc2cc3ccccc3nc2-1` was run?
Answer: The TGI was 30.5 µM.

Question: And the TGI (MDA-MB-435)?
Answer: The TGI was 11.3 µM.

Question: What about the TGI (NCI-H522 lung) of the same compound?
Answer: Its TGI is 4.82 µM.

Question: What about the TGI (RPMI-8226 leukemia) of the same compound?
Answer: The TGI was 5.77 µM.

Question: What about the TGI (RXF 393 renal) of the same compound?
Answer: The TGI was 2.15 µM.

Question: What about the TGI (SF-268 CNS) of the same compound?
Answer: Its TGI is over 95.6 µM.

Question: And the TGI (SF-539 CNS)?
Answer: The TGI was 0.849 µM.

Question: What about the TGI (SK-OV-3 ovarian) of the same compound?
Answer: Its TGI is over 40.5 µM.

Question: Which results are given for `Cn1cnc2nc(Cl)nc(NC(C)(C)C(C)(C)O)c21`?
Answer: TGI (CAKI-1 renal): > 100 µM; TGI (MALME-3M melanoma): > 100 µM; TGI (NCI-H522 lung): > 100 µM; TGI (RPMI-8226 leukemia): > 100 µM; TGI (RXF 393 renal): > 100 µM; TGI (SF-268 CNS): > 100 µM; TGI (SF-539 CNS): > 100 µM; TGI (SK-OV-3 ovarian): > 100 µM

Question: What does the source list for `C=CCOC1OC(CO[Si](C)(C)C(C)(C)C)C(OCc2ccccc2)C(OCc2ccccc2)C1OCc1ccccc1` (centres undefined)?
Answer: TGI (CAKI-1 renal): > 100 µM; TGI (MALME-3M melanoma): > 100 µM; TGI (MCF7 breast): > 100 µM; TGI (MDA-MB-435): > 100 µM; TGI (NCI-H522 lung): > 100 µM; TGI (RPMI-8226 leukemia): > 100 µM; TGI (SF-268 CNS): > 100 µM; TGI (SK-OV-3 ovarian): > 100 µM

Question: `CC(=O)OC1CCn2nnc(CO[Si](C)(C)C(C)(C)C)c21` (centres undefined) was tested. Which TGI (CAKI-1 renal) did it give?
Answer: The TGI was over 100 µM.

Question: What about the TGI (MALME-3M melanoma) of the same compound?
Answer: The TGI was over 100 µM.

Question: What about the TGI (NCI-H522 lung) of the same compound?
Answer: Its TGI is over 100 µM.

Question: And the TGI (RPMI-8226 leukemia)?
Answer: The TGI was over 100 µM.

Question: And the TGI (RXF 393 renal)?
Answer: The TGI was over 100 µM.

Question: And the TGI (SF-539 CNS)?
Answer: Its TGI is over 100 µM.

Question: What about the TGI (SK-OV-3 ovarian) of the same compound?
Answer: Its TGI is over 100 µM.

Question: Which results are given for `COc1ccc(C2=C(Cl)c3cc(OC)c(OC)cc3C2Cl)cc1OC` (centres undefined)?
Answer: TGI (CAKI-1 renal): 35.2 µM; TGI (MALME-3M melanoma): 40.6 µM; TGI (RPMI-8226 leukemia): 27.7 µM; TGI (RXF 393 renal): 35.3 µM; TGI (SK-OV-3 ovarian): 53.9 µM

Question: How did the GI50 (CAKI-1 renal) turn out when `COc1cc2c(c(OC)c1OC)-c1ncc3cc(OC)c(OC)c(OC)c3c1C2` was run?
Answer: The GI50 was 22.5 µM.

Question: And the TGI (CAKI-1 renal)?
Answer: The TGI was 74.3 µM.

Question: What about the GI50 (MDA-MB-435) of the same compound?
Answer: The GI50 was 20.8 µM.

Question: What about the TGI (MDA-MB-435) of the same compound?
Answer: Its TGI is 51 µM.

Question: What about the GI50 (NCI-H522 lung) of the same compound?
Answer: Its GI50 is 16.1 µM.

Question: What about the TGI (NCI-H522 lung) of the same compound?
Answer: The TGI was 43.2 µM.

Question: What about the GI50 (RPMI-8226 leukemia) of the same compound?
Answer: Its GI50 is over 100 µM.

Question: What about the TGI (RPMI-8226 leukemia) of the same compound?
Answer: Its TGI is over 100 µM.

Question: What about the GI50 (RXF 393 renal) of the same compound?
Answer: Its GI50 is 11.2 µM.

Question: And the TGI (RXF 393 renal)?
Answer: Its TGI is 33.1 µM.

Question: What about the GI50 (SK-OV-3 ovarian) of the same compound?
Answer: Its GI50 is 47.5 µM.

Question: And the TGI (SK-OV-3 ovarian)?
Answer: The TGI was over 100 µM.

Question: Which TGI (CAKI-1 renal) does the source give for `O=C(O)C1(P(=O)(O)O)CC1` here?
Answer: Its TGI is over 100 µM.

Question: What about the TGI (MALME-3M melanoma) of the same compound?
Answer: Its TGI is over 100 µM.

Question: And the TGI (NCI-H522 lung)?
Answer: The TGI was over 100 µM.

Question: What about the TGI (RPMI-8226 leukemia) of the same compound?
Answer: Its TGI is over 100 µM.

Question: And the TGI (RXF 393 renal)?
Answer: Its TGI is over 100 µM.

Question: What about the TGI (SF-268 CNS) of the same compound?
Answer: The TGI was over 100 µM.

Question: What about the TGI (SF-539 CNS) of the same compound?
Answer: The TGI was over 100 µM.

Question: And the TGI (SK-OV-3 ovarian)?
Answer: Its TGI is over 100 µM.

Question: `C[Si](C)(C)OC1(C#N)C2C3CC4C2C(=O)C2C4C3C21` (centres undefined) was tested. Which TGI (CAKI-1 renal) did it give?
Answer: Its TGI is over 100 µM.

Question: And the TGI (MALME-3M melanoma)?
Answer: The TGI was over 100 µM.

Question: And the TGI (RPMI-8226 leukemia)?
Answer: The TGI was over 100 µM.

Question: What about the TGI (RXF 393 renal) of the same compound?
Answer: Its TGI is over 100 µM.

Question: And the TGI (SF-268 CNS)?
Answer: Its TGI is over 100 µM.

Question: And the TGI (SF-539 CNS)?
Answer: The TGI was over 100 µM.

Question: What about the TGI (SK-OV-3 ovarian) of the same compound?
Answer: Its TGI is over 100 µM.

Question: `Cc1cc2c(C)n(Cc3ccc(Cl)cc3Cl)nc2c(C#N)c1C` was tested. Which TGI (CAKI-1 renal) did it give?
Answer: Its TGI is over 100 µM.

Question: And the TGI (MALME-3M melanoma)?
Answer: The TGI was over 81.6 µM.

Question: What about the TGI (NCI-H522 lung) of the same compound?
Answer: Its TGI is over 100 µM.

Question: What about the TGI (RPMI-8226 leukemia) of the same compound?
Answer: Its TGI is over 100 µM.

Question: And the TGI (RXF 393 renal)?
Answer: Its TGI is 57.3 µM.

Question: What about the TGI (SF-268 CNS) of the same compound?
Answer: The TGI was over 100 µM.

Question: And the TGI (SF-539 CNS)?
Answer: Its TGI is over 62.5 µM.

Question: What about the TGI (SK-OV-3 ovarian) of the same compound?
Answer: Its TGI is 47.4 µM.

Question: What does the source list for `CCN=C1C=CC(=C(c2ccc(N)cc2)c2ccc(N(CC)CC)c(C)c2)C=C1`?
Answer: GI50 (CAKI-1 renal): 1.92 µM; TGI (CAKI-1 renal): 8.15 µM; GI50 (MALME-3M melanoma): 0.329 µM; TGI (MALME-3M melanoma): 1.23 µM; GI50 (MDA-MB-435): 0.286 µM; TGI (MDA-MB-435): 0.884 µM; GI50 (NCI-H522 lung): 0.31 µM; TGI (NCI-H522 lung): 1.62 µM; GI50 (RPMI-8226 leukemia): 0.149 µM; TGI (RPMI-8226 leukemia): 0.882 µM; GI50 (RXF 393 renal): 0.4 µM; TGI (RXF 393 renal): 1.86 µM; GI50 (SF-268 CNS): 0.407 µM; TGI (SF-268 CNS): 2.09 µM; GI50 (SF-539 CNS): 0.34 µM; TGI (SF-539 CNS): 1.36 µM; GI50 (SK-OV-3 ovarian): 0.255 µM; TGI (SK-OV-3 ovarian): 0.703 µM

Question: What does the source list for `Nn1c(-c2ccccc2Cl)nc2ccccc2c1=O`?
Answer: TGI (CAKI-1 renal): > 100 µM; TGI (MALME-3M melanoma): > 100 µM; TGI (NCI-H522 lung): > 100 µM; TGI (RPMI-8226 leukemia): > 100 µM; TGI (SF-268 CNS): > 100 µM; TGI (SF-539 CNS): > 100 µM; TGI (SK-OV-3 ovarian): > 100 µM

Question: Which TGI (CAKI-1 renal) does the source give for `O=C1C(=O)N(c2ccc(Cl)c(Cl)c2)C(=O)C(=O)C1c1nc2ccccc2s1` here?
Answer: Its TGI is over 100 µM.

Question: And the TGI (MALME-3M melanoma)?
Answer: Its TGI is over 100 µM.

Question: What about the TGI (NCI-H522 lung) of the same compound?
Answer: The TGI was over 100 µM.

Question: What about the TGI (RPMI-8226 leukemia) of the same compound?
Answer: The TGI was over 100 µM.

Question: What about the TGI (RXF 393 renal) of the same compound?
Answer: Its TGI is over 100 µM.

Question: What about the TGI (SF-268 CNS) of the same compound?
Answer: Its TGI is over 100 µM.

Question: And the TGI (SF-539 CNS)?
Answer: The TGI was over 100 µM.

Question: And the TGI (SK-OV-3 ovarian)?
Answer: The TGI was over 100 µM.
